Test results taken from patent US6489307B1, “Antisense compositions targeted to β1-adrenoceptor-specific mRNA and methods of use” (University of Florida, priority 1998, dated 2002).
Values joined by “and” are separate entries in the source; they are usually repeats but may differ in a detail not shown here. Identical values can stand only once.

Experiments:
Assay type in all cases: in vivo, rat (SHR)
SHRs = test: Blood pressure of SHRs by tail cuff; settings: for reduction of blood pressure throughout the treatment period: repeated treatment for more than 2 months; for Duration (Range) / Range of Reduction / Maximum Reduction in Blood Pressure: single i.v. 0.5 mg/kg
Protocol: (§1) Rats were warmed for 20 to min. in cages on heating pads. The temperature was controlled at 35° C. to 37° C. Then the rats were placed in a plastic restrainer kept at 37° C. A pneumatic pulse sensor was attached to the tail. After cuff inflation, SBP was determined as the first pulsatile oscillation on the descending side of the pressure curve. HR was determined by manual counting of pulse numbers per unit time. BP and HR were recorded by a Narco physiograph. Data values of each rat were taken as an average of at least 4 stable readings. Baseline was determined by averaging 3 days of measurements before antisense administration.
Blood pressure was measured by the tail-cuff method as described above. Systolic blood pressure (SBP) was determined as the first pulsatile oscillation on the descending side of the pressure curve. Data values of each rat were taken as an average of ≧4 stable readings. Baseline was determined by averaging 3 days of measurements before antisense administration.
as §1, with “for 20-30 min” for “for 20 to min.”, “at 35-37°” for “at 35° C. to 37°”, “Then” for “Then the”, “of” for “of the”, “least four” for “least 4”, “averaging three” for “averaging 3”

[1] = Hematology after repeated injections; settings: for MPV: after repeated administration
Protocol: (§2) Safety profiles including liver transaminases, hematology, immune response and tissue pathology were investigated during three repeated injections of β1-AS-ODNs for extended periods of time.
Hematological parameters were measured after three repeated injections of β1-AS-ODN. There was no change in total leukocyte count (WBC), platelet count, hematocrit and mean platelet volume (MPV) among three groups (Table 6).

β1-AR = test: β-adrenergic receptor binding assay on renal cortex membranes; settings: for decrease in Bmax of β1-ARs in renal cortex: charge ratio 2
Protocol: Four days after intravenous injection of saline (n=6) or 0.5 mg/kg inverted ODN (n=6) or 4, 10, 18 and 40 days after injection of 0.5 mg/kg β1-AS-ODN (n=24), animals were euthanized, and membranes were prepared from the renal cortex of the left kidneys as previously described (Baker and Pitha, 1982). For saturation studies, 100 μg membrane protein was incubated in triplicate with 6 concentrations of [^125](−)iodocyanopindolol (ICYP, NEN Life Science, 6.25 to 100 pmol/L) in a total volume of 250 μL containing 50 mmol/L Tris-HCl (pH 7.4) and 5 mmol/L MgCl2 at 36° C. for 60 min. The nonspecific and β2-adrenergic receptor binding levels were determined in the presence of 1 μmol/L (±)-alprenolol and […] CGP20712A (RBI), respectively. Then the reaction mixture was passed through a Whatman GF/B glass fiber filter with a Brandel harvester, and the bound radioactivity was counted for 1 min.

β2-ARs = biological target: T1, β2-ARs (Rattus norvegicus, UniProt P10608); test: β-AR binding assay (ICYP saturation) on heart ventricle membranes after i.v. injection; settings: for Bmax, β2: cardiac ventricles of SHRs 4 days after treatment (1 mg/kg i.v.)
T1 construct: membranes were prepared from heart ventricles as previously described; from tissue; host or cells: heart ventricles of SHR
Protocol: (§3) Four days after intravenous injection of saline (n=6) or 1 mg/kg inverted ODN (n=6) or 2, 4, 10 or 18 days after injection of 1 mg/kg β1-AS-ODN (n=24), animals were euthanized, and membranes were prepared from heart ventricles as previously described (Baker and Pitha, 1982). For saturation experiments, 100 μg membrane protein was incubated in triplicate with 6 concentrations of [^125I](^−)-iodocyanopindolol (ICYP, NEN Life Science, 6.25 to 100 pmol/L) in a total volume of 250 μL containing 50 mmol/L Tris-HCl (pH 7.4), 5 mmol/L MgCl2 at 36° C. for 60 minutes. The nonspecific and β2-AR-binding levels were determined in the presence of 1 μmol/L (±)-alprenolol and 150 nmol/L CGP20712A (RBI), respectively. Then the reaction mixture was passed through Whatman (GF/B glass fiber filter using a Brandel harvester, and the bound radioactivity was counted for 1 min.
(§4) Four days after intravenous injection of saline (n=6) or 1 mg/kg inverted ODN (n=6), or 2, 4, 10, 18 days after injection of 1 mg/kg β1-AS-ODN (n=24), animals were sacrificed and membranes were prepared from heart ventricles as previously described (Baker and Pitha, 1982). For saturation studies, 100 μg membrane protein was incubated in triplicate with six concentrations of ^125I-(−)iodocyanopindolol (I-CYP, NEN Life Science, 6.25-100 pM) in a total volume of 250 μl containing 50 mM Tris-HCl (pH 7.4), 5 mM MgCl2 at 36° C. for 60 min. The nonspecific and β2-adrenoceptor binding levels were determined in the presence of 1 μM (±)-alprenolol and 150 nM CGP20712A (RBI), respectively. Then the reaction mixture was passed through Whatman GF/B glass fiber filter using Brandel harvester and the bound radioactivity was counted for one min.

β1-ARs = biological target: T2, β1-ARs (Rattus norvegicus, UniProt P18090); test: as above; settings: for Bmax, β1: cardiac ventricles of SHRs 4 days after treatment (1 mg/kg i.v.)
T2 construct: membranes were prepared from heart ventricles as previously described; from tissue; host or cells: heart ventricles of SHR
Protocol: as §3, §4

Total (β1+β2) β-ARs = test: as above; settings: cardiac ventricles of SHRs 4 days after treatment (1 mg/kg i.v.)
Protocol: as §3, §4

[2] = Liver transaminases in plasma after repeated injections; settings: for ALT / AST: after repeated administration
Protocol: as §2
Alanine aminotransferase (ALT) and aspartate aminotransferase (AST) are routinely used as a clinical index for liver function. Their levels increase substantially upon liver damage. SHR were treated with three repeated injections of β1-AS-ODN.

[3] = 0.5 mg/kg i.v., charge ratio 1.5
[4] = 0.5 mg/kg i.v., charge ratio 2.5
[5] = 0.5 mg/kg i.v., charge ratio 3.5
[6] = single 1 mg/kg, liposomes DNA/lipid 1:0.5

T2 sequence (P18090 whole entry): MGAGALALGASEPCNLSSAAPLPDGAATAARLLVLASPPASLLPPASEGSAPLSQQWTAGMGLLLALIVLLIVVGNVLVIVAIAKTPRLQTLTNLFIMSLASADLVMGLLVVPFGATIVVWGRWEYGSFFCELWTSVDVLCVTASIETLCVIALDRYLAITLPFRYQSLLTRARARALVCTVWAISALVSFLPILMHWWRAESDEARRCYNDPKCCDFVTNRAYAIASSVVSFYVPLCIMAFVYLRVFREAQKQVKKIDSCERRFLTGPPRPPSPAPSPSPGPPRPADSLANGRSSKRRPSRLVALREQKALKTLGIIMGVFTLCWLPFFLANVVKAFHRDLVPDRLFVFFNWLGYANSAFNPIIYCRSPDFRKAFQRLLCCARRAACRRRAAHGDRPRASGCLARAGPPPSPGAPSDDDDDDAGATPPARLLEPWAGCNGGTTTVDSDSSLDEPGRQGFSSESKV
T1 sequence (P10608 whole entry): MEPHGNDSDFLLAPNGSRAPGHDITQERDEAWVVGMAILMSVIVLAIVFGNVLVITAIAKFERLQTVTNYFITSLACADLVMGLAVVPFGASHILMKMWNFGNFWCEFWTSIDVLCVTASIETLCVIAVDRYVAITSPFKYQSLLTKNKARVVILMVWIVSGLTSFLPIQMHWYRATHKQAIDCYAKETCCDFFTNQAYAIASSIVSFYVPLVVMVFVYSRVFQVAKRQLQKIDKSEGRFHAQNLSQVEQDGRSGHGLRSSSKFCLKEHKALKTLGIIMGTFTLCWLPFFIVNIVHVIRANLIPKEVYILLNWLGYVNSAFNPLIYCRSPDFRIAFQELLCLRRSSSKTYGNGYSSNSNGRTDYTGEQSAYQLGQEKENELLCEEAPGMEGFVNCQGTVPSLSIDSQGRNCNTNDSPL

## 5′-CCGCGCCCATGCCGA-3′ (phosphorothioate backbone, further chemistry not given here) [β1-AS-ODN, 15-mer antisense ODN targeted to the AUG start codon of rat β1-AR mRNA]
SHRs; 0.5 mg/kg i.v., charge ratio 0.5
  duration of SBP reduction: 7 to 8 days
SHRs; 0.5 mg/kg i.v., charge ratio 0.5, representative experiment
  reduction of SBP: up to 33 mm Hg
SHRs; [3]
  duration of the hypotensive impact: 20 days
  maximum drop in SBP: ≈ 35 mm Hg
SHRs; [4]
  duration of the hypotensive impact: 33 days
  maximum drop in SBP: ≈ 35 mm Hg
SHRs; [5]
  duration of the hypotensive impact: 33 days
  maximum drop in SBP: ≈ 25 mm Hg
SHRs; 0.5 mg/kg i.v., β1-AS-ODN alone (ratio 0)
  effect on SBP: did not change SBP
SHRs
  reduction of blood pressure throughout the treatment period: 20-30 mmHg
SHRs; [6]
  duration of diminished SBP: 8 days
  maximum drop in SBP: 38±5 mm Hg
SHRs; charge ratio 0.5
  Duration (Range): 7 to 8 days
  Range of Reduction: 24-38 mm Hg
SHRs; charge ratio 1.5
  Duration (Range): 18 to 20 days
  Range of Reduction: 18-35 mm Hg
SHRs; charge ratio 2.5
  Duration (Range): 20 to 33 days
  Range of Reduction: 20-34 mm Hg
SHRs; charge ratio 3.5
  Duration (Range): 20 to 33 days
  Range of Reduction: 15-24 mm Hg
SHRs; charge ratio liposome/ODN 0
  Maximum Reduction in Blood Pressure: 2 mm Hg
SHRs; charge ratio liposome/ODN 0.5
  Maximum Reduction in Blood Pressure: 35-38 mm Hg
SHRs; charge ratio liposome/ODN 1.5
  Maximum Reduction in Blood Pressure: 28-35 mm Hg
SHRs; charge ratio liposome/ODN 2.5
  Maximum Reduction in Blood Pressure: 30-34 mm Hg
SHRs; charge ratio liposome/ODN 3.5
  Maximum Reduction in Blood Pressure: 20-24 mm Hg
SHRs; single i.v. injection with cationic liposomes, summary
  hypotensive effect: 30 to 35 mm Hg
[1]
  MPV: 6.93 ± 0.08 fL
[1]; rat, in vivo
  WBC: 5.48 ± 0.41 10^3/mm^3
  hematocrit: 46.2 ± 0.63%
  platelet: 685 ± 12 10^3/mm^3
  total leukocyte count (WBC), platelet count, hematocrit and MPV: no change
β1-AR; 0.5 mg/kg i.v.
  affinity of either subtype in renal cortex: not affected
β1-AR; 0.5 mg/kg i.v., day 4
  decrease in Bmax of β1-ARs in renal cortex: 35%
β1-AR; 0.5 mg/kg i.v., day 10
  decrease in Bmax of β1-ARs in renal cortex: 29%
β1-AR; 0.5 mg/kg i.v., day 18
  decrease in Bmax of β1-ARs in renal cortex: 23%
β1-AR; 0.5 mg/kg i.v., day 40
  Bmax of β1-ARs in renal cortex: completely restored
β1-AR; summary statement
  duration of reduction of β1-AR levels in renal cortex: 18 days
  reduction of β1-AR levels in renal cortex: ≈ 30%
β2-ARs; SHR hearts, single i.v. 1 mg/kg
  change in Bmax of β2-ARs: no significant change
β2-ARs
  Bmax, β2: 9.9 ± 0.5 fmol/mg
β1-ARs; after treatment, from ≈70/30
  β1/β2 subtype ratio in the ventricles: ≈ 50/50 and 50/50
β1-ARs
  Bmax, β1: 10.0 ± 1.2 fmol/mg
β1-ARs; single i.v. 1 mg/kg with cationic liposomes 1:2.5
  duration of significant reduction of β1-AR density in SHR hearts: 18 days
β1-ARs; single i.v. 1 mg/kg with cationic liposomes 1:2.5, day 10
  drop in cardiac β1-AR density: 33%
β1-ARs; single i.v. 1 mg/kg with cationic liposomes 1:2.5, day 18
  drop in cardiac β1-AR density: 29%
Total (β1+β2) β-ARs
  Bmax, Total (β1+β2): 19.8 ± 1.8 fmol/mg
[2]; after each of three repeated injections
  plasma concentrations of ALT and AST vs control groups: no significant difference
[2]
  ALT: 25.7 ± 1.1 unit/ml
  AST: 74.0 ± 3.7 unit/ml

## 5′-AGCCGTACCCGCGCC-3′ (phosphorothioate backbone, further chemistry not given here) [Inverted ODN, 15-mer inverted ODN control, reference compound]
SHRs; 1 mg/kg with liposomes
  effect on SBP: No effect
SHRs
  reduction of blood pressure throughout the treatment period: no change
[1]
  MPV: 7.2 ± 0.20 fL
[1]; rat, in vivo
  WBC: 5.75 ± 1.15 10^3/mm^3
  hematocrit: 46.0 ± 0.1%
  platelet: 706 ± 28 10^3/mm^3
β1-AR; 0.5 mg/kg i.v., 4 days
  effect on either β-AR subtype in renal cortex: no effect
β2-ARs
  Bmax, β2: 8.7 ± 0.5 fmol/mg
β1-ARs; SHR cardiac ventricles, 1 mg/kg i.v., 4 days
  effect on either β-AR subtype: no effect
β1-ARs
  Bmax, β1: 18.1 ± 2.3 fmol/mg
Total (β1+β2) β-ARs
  Bmax, Total (β1+β2): 26.3 ± 3.0 fmol/mg
[2]
  ALT: 30.5 ± 3.8 unit/ml
  AST: 83.0 ± 8.3 unit/ml
